Reference: paper PMC8956739, “A synthetic lipopeptide targeting top-priority multidrug-resistant Gram-negative pathogens” (Nature Communications, 2022)
Values after ≈ are worked out from the molar mass of the structure shown. Read-outs that look alike come from different tables or passages of the source. Residues, ends and D or L forms follow the SMILES beside them.

What was measured:
A. baumannii FADDI-AB156 = test: MIC, polymyxin-resistant isolate; type: cell-based, Acinetobacter baumannii; conditions: carbapenem-resistant
Method: MICs were determined in cation-adjusted Mueller–Hinton broth (CaMHB) by the broth micro-dilution method against ATCC strains and clinical isolates. MICs in the presence of Survanta® were determined as described above against P. aeruginosa ATCC 27853. In the 100 μL of fresh CaMHB containing polymyxins, 10% Survanta® (v/v, 2.5 mg/mL phospholipids) was added. MICs in the presence and absence of Survanta® were compared to determine the effect of binding to lung surfactant on the antibacterial activity of polymyxins.

K. pneumoniae Kp MKP103 = type: cell-based, Klebsiella pneumoniae; conditions: polymyxin-resistant
Summary of the method: (§1)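 Broth microdilution, CaMHB; MIC read as the antibacterial endpoint against ATCC reference strains and clinical isolates.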

[1] = tested on: K. pneumoniae FADDI-KP027; type: cell-based, Klebsiella pneumoniae
Summary of the method: as §1

A. baumannii FADDI-AB034 = type: cell-based, Acinetobacter baumannii
Summary of the method: as §1

A. baumannii ATCC 19606 = type: cell-based, Acinetobacter baumannii
Summary of the method: as §1

A. baumannii AB5075 = type: cell-based, Acinetobacter baumannii
Summary of the method: as §1

[2] = tested on: MDR clinical isolates of A. baumannii (n = 210, 200 carbapenem-resistant); type: cell-based, Acinetobacter baumannii
Summary of the method: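 Susceptibility: microdilution MIC in CaMHB.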

A. baumannii FADDI-AB030 = type: cell-based, Acinetobacter baumannii
Summary of the method: as §1

HK-2 cells = test: Transcriptomic analysis (RNA-Seq) of kidney cells; type: cell-based, human; conditions: for logFC, differential gene expression for all genes / log2FC / Fold Change: HK-2 RNA-Seq; for log2FC: Fig. 5f; for Fold Change: Fig. 5e; for num.of.degs: number of differentially expressed genes per peptide, Fig. 6a
Method: Human Kidney-2 (HK-2) cells (CRL-2190™, American Type Culture Collection) were treated with 100 μM colistin, F287, F319, and F365 for 24 h. Previous transcriptomic data of HK-2 cells following 24 h treatment with polymyxin B[26] were also employed for comparative bioinformatic analysis. RNA extraction was conducted as described above. Raw reads were aligned to genome GRCh38.94 (Ensembl genome database, http://ftp.ensembl.org/pub/release-94/fasta/homo_sapiens/dna/) using […] and summarized by featureCounts. Differentially expressed genes were determined using limma 3.46.0, with a combination of fold change ≥ 1.5 and FDR (by Benjamini–Hochberg algorithm) adjusted P-value ≤ 0.05 (n = 3). Key regulatory genes of HK-2 were analyzed in the context of signaling network in the Signor 2.0 database. Enrichment analysis of gene differential expression in HK-2 cells was conducted using enrichR 2.1. UpSetR 1.4.0, ComplexHeatmap 2.6.2, circlize 0.4.13 and iGraph 1.2.11 were used for data visualization. Raw data were deposited in the Short Reads Archive database under accession numbers SRR15239061-SRR15239078.

wild-type HK-2 cells = test: in vitro; type: cell-based, human
Method: (§2) Fig. 6 Transcriptomic changes in human kidney proximal tubular HK-2 cells following treatments with polymyxin B (PMB), colistin (COL), F287, F319, and F365. a Numbers of differentially expressed genes. Distinctive intersections are color-coded. b Cell viability difference (two-tailed Student’s t-test, n = 4 biologically independent cells, Benjamini–Hochberg adjusted P-values) between wild-type HK-2 and KCNJ16 knockout (KO) cells following 24 h treatment with lipopeptides. n.s., not significant; ^*adjusted P < 0.05, ^**adjusted P < 0.01, ^***adjusted P < 0.001. Data are shown as mean ± s.d. and individual data points. c Extracted transcriptional regulatory network from Signor database with 1-step neighbor constraints (enlarged for detail). Source data are provided as a Source Data file.

in vitro = type: cell-based, human; conditions: human, wild-type HK-2 cells (kidney proximal tubular), Cell viability, WT
Method: as §2

[3] = human, wild-type HK-2 cells (kidney proximal tubular), 24 h
[4] = MDR clinical isolates of (n = 210, 200 carbapenem-resistant)

Molecule | MIC A. baumannii FADDI-AB156 (A. baumannii FADDI-AB156) | MIC K. pneumoniae Kp MKP103 (K. pneumoniae Kp MKP103) | Number of isolates ([2]; isolates with MIC 0.05 µg/mL) | Number of isolates ([2]; isolates with MIC 0.125 µg/mL) | Number of isolates ([2]; isolates with MIC 0.25 µg/mL) | Number of isolates ([2]; isolates with MIC 0.5 µg/mL) | Number of isolates ([2]; isolates with MIC 1 µg/mL) | Number of isolates ([2]; isolates with MIC 2 µg/mL) | Number of isolates ([2]; isolates with MIC 4 µg/mL) | Number of isolates ([2]; isolates with MIC 8 µg/mL) | Number of isolates ([2]; isolates with MIC 16 µg/mL) | Number of isolates ([2]; isolates with MIC 32 µg/mL) | Number of isolates ([2]; isolates with MIC 64 µg/mL) | Number of isolates ([2]; isolates with MIC >64 µg/mL) | logFC, differential gene expression for all genes (HK-2 cells; Geneid ENSG00000223972) | logFC, differential gene expression for all genes (HK-2 cells; Geneid ENSG00000227232) | logFC, differential gene expression for all genes (HK-2 cells; Geneid ENSG00000233750) | logFC, differential gene expression for all genes (HK-2 cells; Geneid ENSG00000278267) | log2FC (HK-2 cells; gene ENSG00000017483 SLC38A5) | log2FC (HK-2 cells; gene ENSG00000023445 BIRC3) | further results
Polymyxin B [reference compound] | 8 mg/L | 16 mg/L | 0 | 0 | 0 | 24 | 120 | 47 | 11 | 5 | 2 | 0 | 0 | 0 | 0.4637 | -0.07236 | -0.3869 | -0.4937 | 0.7953 | -0.454 | MIC K. pneumoniae FADDI-KP027 ([1]; polymyxin-resistant): > 32 mg/L; MIC A. baumannii FADDI-AB034 (A. baumannii FADDI-AB034; carbapenem-resistant isolate): 0.5 mg/L; MIC A. baumannii ATCC 19606 (A. baumannii ATCC 19606): 1 mg/L; MIC A. baumannii AB5075 (A. baumannii AB5075): 0.5 mg/L; MIC50 ([2]; A. baumannii n = 210): 1 mg/L; MIC90 ([2]; A. baumannii n = 210): 4 mg/L; MIC A. baumannii FADDI-AB030 (A. baumannii FADDI-AB030; carbapenem-resistant isolate): 0.25 mg/L; log2FC (HK-2 cells; gene ENSG00000056558 TRAF1): 0.6897; log2FC (HK-2 cells; gene ENSG00000066468 FGFR2): -1.758; Fold Change (HK-2 cells; locus chr1 629640-630683 (ENSG00000225630 by coordinates)): 1.799; Fold Change (HK-2 cells; locus chr1 631074-632616 (ENSG00000237973 by coordinates)): 1.271; Fold Change (HK-2 cells; locus chr1 632757-633438 (ENSG00000229344 by coordinates)): 1.2; num.of.degs (HK-2 cells): 1576; Cell viability, WT, Rep1 (wild-type HK-2 cells; [3]): 28.7713; Cell viability, WT, Rep2 (wild-type HK-2 cells; [3]): 35.2856; Cell viability, WT, Rep4 (wild-type HK-2 cells; [3]): 31.0651
CC[C@@H]1NC(=O)[C@@H](CC(C)C)NC(=O)[C@H](CCN)NC(=O)[C@@H](NC(=O)[C@H](CN)NC(=O)[C@@H](NC(=O)[C@H](CCN)NC(=O)c2ccc(Cl)cc2Cl)[C@@H](C)O)CCNC(=O)[C@H]([C@@H](C)O)NC(=O)[C@H](CCN)NC(=O)[C@H](CCN)NC1=O [Lipopeptide F365] (HELM PEPTIDE1{[O=C(c1ccc(Cl)cc1Cl)[*:2]].[Dab].T.[NC[C@H](N[*:1])C(=O)[*:2]].[Dab].[Dab].[dL].[Abu].[Dab].[Dab].T}$PEPTIDE1,PEPTIDE1,5:R3-11:R2$$$V2.0) | 4 mg/L (≈ 3.45 µM) | 8 mg/L (≈ 6.9 µM) | 1 | 7 | 99 | 81 | 8 | 9 | 1 | 0 | 1 | 2 | 1 | 0 | -0.04793 | -0.06475 | -1.555 | 0.04711 | -0.03439 | -0.1649 | MIC K. pneumoniae FADDI-KP027 ([1]; FADDI-KP027): > 32 mg/L; MIC A. baumannii FADDI-AB034 (A. baumannii FADDI-AB034; FADDI-AB034): 0.25 mg/L (≈ 0.215 µM); MIC A. baumannii ATCC 19606 (A. baumannii ATCC 19606; ATCC 19606): 0.25 mg/L (≈ 0.215 µM); MIC A. baumannii AB5075 (A. baumannii AB5075; AB5075): 0.5 mg/L (≈ 0.431 µM); MIC50 [2, 4]: 0.25 mg/L (≈ 0.215 µM); MIC90 [2, 4]: 1 mg/L (≈ 0.862 µM); potency relative to polymyxin B ([2]; MIC50/MIC90, A. baumannii panel): ≤ 4 fold; MIC A. baumannii FADDI-AB030 (A. baumannii FADDI-AB030; FADDI-AB030): 0.25 mg/L (≈ 0.215 µM); log2FC (HK-2 cells; gene ENSG00000056558 TRAF1): 0.4036; log2FC (HK-2 cells; gene ENSG00000066468 FGFR2): -0.6638; num.of.degs (HK-2 cells): 70; viability at 24 h (in vitro; Rep1): 96.4%; viability at 24 h (in vitro; Rep2): 95.4%; viability at 24 h (in vitro; Rep4): 95.1%; effect on cell viability (wild-type HK-2 cells): no effect on cell viability
